Results: patent US20250134952A1, “METHODS FOR IMPROVING THE EFFICACY OF HDAC INHIBITOR THERAPY AND PREDICTING THE RESPONSE TO TREATMENT WITH HDAC INHIBITOR” (INSTITUT NATIONAL DE LA SANTÉ ET DE LA RECHERCHE MÉDICALE, priority 2021, published 2025)

Key:
[1] = test system: GAL4UAS responsive luciferase reporter Hela stable cell line; experiment: GAL4UAS responsive luciferase reporter assay; type: cell-based; details: for reduction of luciferase activity by Tau4R overexpression: wild-type Tau4R transfected
Procedure: (A) Representative confocal sections of MCF7shctrl and shTau cells untreated or treated with 100 nM TSA for 24 h. […] (B) Quantification of HP1α clusters per nuclei visualized as described previously and realized on three independent experiments. (C) GADD45a and (D) p21 (CDKN1a) expression in MCF7shctrl and shTau cells untreated or treated with 100 nM TSA for 24 h were analyzed by real-time PCR and normalized to RPLO. Results are expressed, relative to the basal activity set to 1, as the mean±SD of three independent assays. (E) Tau tethering prevents adjacent reporter gene activity induced by TSA. GAL4UAS responsive luciferase reporter Hela stable cell line was transfected with GAL4DBD (GAL4) or GAL4DBD-Tau4R and then, 24 h later, treated with TSA (600 nM) for 24 h. The luciferase activity was determined as described in the Materials and Methods. (F) Ectopic Tau4R expression prevents adjacent reporter gene activity induced by TSA. The GAL4UAS responsive luciferase reporter Hela stable cell line was transfected with a plasmid encoding Tau4R for 24 h. Then, cells were treated with an increasing concentration of TSA, as indicated for 24 h. The luciferase activity was determined as described in the Materials and Methods. Data are mean±SD **P<0.01***P<0.001 vs. control.
SH-SY5Y human neuroblastoma cells expressing Tau4R tagged with the streptavidin-binding peptide (SBP) (referred as SH-SY5Y-(SBP)Tau4R) (Chauderlier et al., 2018), SH-SY5Y-Tet-on-Tau4R, Hela cells, MCF7 and MDA-MB-231 were cultured in Dulbecco's Modified Eagle's Medium with 10% fetal bovine serum, 2 mM L-glutamine and 50 U/ml penicillin/streptomycin (Gibco) at 37° C. in 5% CO2 humidified air. Transient and stable transfections experiments were performed using the lipofectamine 3000 reagent (Invitrogen). Transient luciferase assays were performed with the dual-luciferase assay system (Promega). For stable clones, luciferase activities were measured using the luciferase assay system (Promega) and normalized against protein concentration. To isolate stably transfected clones, Hela cells were transfected with the pGL4.31[luc2P/GAL4 UAS/Hygro](referred to as the GAL4UAS stable Hela cell line) and selected with hygromycin (200 μg/ml). Of 6 clones tested for reporter activity, one clone was chosen for further studies. MCF7 and MDA-MB-231 cells were transfected with short hairpin Tau or RNA Ctrl vectors and selected with puromycin ([…]). Clones were isolated and tested for Tau expression.
To directly probe how Tau prevents TSA-induced chromatin remodeling and gene expression, we next used Hela cells as they lack endogenous Tau. First, we generated a stable GAL4UAS-responsive luciferase reporter Hela clone that we subsequently selected for trichostatin-induced luciferase activity. In our preliminary experiments we found the lowest dose of TSA inducing maximal luciferase activity was 600 nM and we used this concentration in the following experiments. In addition, by performing salt extraction on nuclei, we found only Tau4R isoforms were tightly bound to chromatin and could potentially impact directly on chromatin structure (data not shown). We therefore targeted Tau4R to UAS responsive elements by fusing Tau4R to the heterologous DNA-binding domain GAL4 and transfected this plasmid into Hela stable clone. […] We next wondered if this effect was due to the tethering of Tau4R to the promoter or whether this was independent of Tau4R fusion to GAL4. […]

[2] = test system: MCF7shctrl and MCF7shTau subclones; experiment: Apoptosis by flow cytometry of PI-positive and Annexin-V-positive cells; type: cell-based, human; details: 100 nM TSA, 48 h
Procedure: (§1) FIG. 1: Tau inhibition increases MCF7 breast cancer cell line sensitivity to TSA. (A) Tau protein expression in MCF7, MCF7shctrl and shTau were quantify by Elisa. (B) Effect of 100 nM TSA (48 h) on cell death in the MCF7shctrl and MCF7shTau subclones. Cell death was determined by staining and flow cytometric analysis as described in the materials and methods. (C) Effect of 100 nM TSA (48 h) on apoptosis in the MCF7shctrl and MCF7shTau subclones. Apoptosis was determined by flow cytometric analysis of the PI-positive and Annexin-V-positive cells as described in the materials and methods. (D) Cell cycle distribution was determined by FACS analysis of combined propidium iodide and EdU staining in MCF7shctrl and MCF7shTau in the absence or presence 100 nM TSA, 48 h. Data are mean±SD **P<0.01***P<0.001. […]
(§2) SH-SY5Y human neuroblastoma cells expressing Tau4R tagged with the streptavidin-binding peptide (SBP) (referred as SH-SY5Y-(SBP)Tau4R) (Chauderlier et al., 2018), SH-SY5Y-Tet-on-Tau4R, Hela cells, MCF7 and MDA-MB-231 were cultured in Dulbecco's Modified Eagle's Medium with 10% fetal bovine serum, 2 mM L-glutamine and 50 U/ml penicillin/streptomycin (Gibco) at 37° C. in 5% CO2 humidified air. […] For stable clones, luciferase activities were measured using the luciferase assay system (Promega) and normalized against protein concentration. […]

[3] = test system: MCF7shctrl and MCF7shTau subclones; experiment: Cell death by staining and flow cytometric analysis (Zombie NIR); type: cell-based, human; details: 100 nM TSA, 48 hours
Procedure: as §1, §2

breast cancer cell lines = experiment: Preliminary experiments: lowest dose of TSA inducing cellular responses; type: cell-based, human
Procedure: To dissect the role of Tau in controlling chromatin we sought to perturb chromatin structure by inhibiting histone deacetylation with the pan-histone deacetylase-inhibitor trichostatin A (TSA). In our preliminary experiments we found the lowest dose of TSA inducing cellular responses was 100 nM and we used this concentration in all the following experiments. First, we evaluated cell death, apoptosis and cell cycle progression by flow cytometric analyses in the two cell lines (as above we just illustrate our results with MCF7 cells in the main paper). We tested the effect of TSA in the presence or absence of short hairpin RNAs (Tau and Control). After 48 hours there was a strong increase in the number of dead cells from less 2% to >50% in the Tau-knockdown cells and a lesser increase to 38% in sh-ctrl cells (FIG. 1). In agreement, apoptosis was measured at 48% and 30% respectively (FIG. 1C).

[4] = Tau-knockdown cells (MCF7shTau)

Structure (SMILES): CC(/C=C/C(=O)NO)=C\[C@@H](C)C(=O)c1ccc(N(C)C)cc1 [TSA, 2,4-Heptadienamide, 7-[4-(dimethylamino)phenyl]-N-hydroxy-4,6-dimethyl-7-oxo-, (2E,4E,6R)-]
- reduction of luciferase activity by Tau4R overexpression ([1]; 100 nM TSA, 24 h): around 50%
- reduction of luciferase activity by Tau4R overexpression ([1]; 300 nM TSA, 24 h): around 50%
- reduction of luciferase activity by Tau4R overexpression ([1]; 600 nM TSA, 24 h): no reduction
- reduction of TSA-induced luciferase activity in the presence of GAL-Tau4R ([1]; TSA 600 nM, 24 h, GAL4DBD-Tau4R transfected): 50%
- lowest dose of TSA inducing maximal luciferase activity ([1]; preliminary experiments, Hela stable clone): 600 nM
- apoptosis [2, 4]: 48%
- apoptosis ([2]; sh-ctrl cells (MCF7shctrl)): 30%
- number of dead cells [3, 4]: > 50%
- number of dead cells ([3]; sh-ctrl cells (MCF7shctrl)): 38%
- lowest dose of TSA inducing cellular responses (breast cancer cell lines): 100 nM
